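Five concentrations, 48 hours, 96-well plates. GI50: concentration for 50% inhibition of growth. TGI: total growth inhibition.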 Where only a bound is given, the exact number is not on record here.

Holding throughout (assay): growth of human tumour cells (NCI), 48 h
For test [1], the system named is CCRF-CEM leukemia.
For test [2], the system named is HOP-92 NSCLC.
The test system of test [3] is KM12 colon.
The test system of test [4] is MOLT-4 leukemia.
The subject of test [5] is NCI-H226 lung.
For test [6], the system named is OVCAR-4 ovarian.
For test [7], the system named is OVCAR-5 ovarian.
Test [8] deals with SK-MEL-2 melanoma.
For test [9], the system named is SNB-19 CNS.
The subject of test [10] is TK-10 renal.

In the case of `CC1SC(c2ccc(Cl)cc2Cl)N(NC(=O)C(O)c2ccccc2)C1=O` (centres undefined), the GI50 in test [1] was 65.4 µM; in test [2], 35.9 µM; in test [3], 51.2 µM; in test [4], 34.5 µM; in test [5] it was 44.1 µM; in [6], 28.5 µM. Besides, the GI50 in test [7] is more than 100 µM; in [8], more than 100 µM; in [9], more than 100 µM; in test [10], 61.2 µM. Moreover, the TGI was more than 100 µM in test [1]; more than 100 µM in test [2]; more than 100 µM in test [3]; more than 100 µM in test [4]; more than 100 µM in test [5]; 98.5 µM in test [6]. For the same compound, the TGI in test [7], in [8], in test [9] and in test [10] was more than 100 µM in each case.

Regarding `COc1cc2c3c(n(CCCNCCCN)c(=O)c2cc1OC)-c1cc2c(cc1C3=O)OCO2`, the GI50 is 0.22 µM in test [1]; 1.36 µM in test [2]; 3.51 µM in [3]; 0.244 µM in [4]; 2.21 µM in [5]; 2.83 µM in [6]. Further, the GI50 in [7] was 2.94 µM; in [8], 2.35 µM; in [9], 1.52 µM; in [10] it was 9.74 µM. The TGI in test [1] came to 15.8 µM; in test [2] it was 11.2 µM; in test [3] it was 16.9 µM; in test [4] it was 0.688 µM; in test [5] it was 8.45 µM; in test [6] it was 16.7 µM. In addition, the TGI in test [7] is 12.6 µM; in test [8], 7.33 µM; in test [9], 11.6 µM; in test [10] it was 27.9 µM.

In the case of `COc1ccc2c(c1)CN1CCc3c(cc(OC)c(OC)c3OC)C1C2` (centres undefined), the TGI in test [1], in [2], in test [4], in test [5], in test [6] and in test [7] was more than 100 µM each time. Further, the TGI in test [8], in test [9] and in test [10] was more than 100 µM throughout.

Turning to `C[C@H]1C=C2C(=O)O[C@H]3CC[C@@H](C1)[C@@]23O`, the TGI in test [1] is 6.05 µM; in test [2], 16.3 µM; in [3], 12.7 µM; in test [4] it was more than 100 µM; in test [5] it was 29.3 µM; in [6], 24.4 µM. Moreover, the TGI in [7] amounted to 12.7 µM; in test [8], 10.1 µM; in test [9], 30.6 µM; in test [10], 8 µM.

As for `O=P(O)(O)OCC1OC(n2cnc3c(NCc4ccccc4)ncnc32)C(O)C1O` (centres undefined), the GI50 is 3.76 µM in test [1]; 2.14 µM in test [2]; 12.7 µM in test [3]; 0.673 µM in test [4]; 2.26 µM in test [5]; 0.642 µM in [6]. Besides, the GI50 is 3.11 µM in test [7], more than 23.8 µM in test [8], 4.18 µM in test [9] and 2.15 µM in [10]. Besides, the TGI in test [1] is more than 100 µM; in test [2], more than 22.5 µM; in [3], more than 100 µM; in test [4], more than 100 µM; in test [5], 6.48 µM; in test [6], 33.1 µM. The TGI in test [7] was more than 100 µM; in [8], more than 84.4 µM; in [9], more than 100 µM; in test [10], 30.2 µM.

Turning to `O=C1NC(c2ccccc2)C2(C(=O)O)CN(C3CC3)c3cc(N4CCNCC4)c(F)cc3C2N1` (centres undefined), the GI50 in [1], in test [2], in test [3], in test [4], in [5] and in [6] was more than 100 µM throughout. Also, the GI50 in test [7], in test [8], in [9] and in test [10] was more than 100 µM each time. For the same compound, the TGI in test [1], in test [2], in test [3], in test [4], in test [5] and in test [6] was more than 100 µM throughout. Moreover, the TGI in [7], in [8], in [9] and in test [10] was more than 100 µM throughout.

For `CC(=O)Oc1ccc2c(c1)C(=O)c1nc(C)c(C)nc1C2=O`, the TGI is more than 100 µM in test [1]; more than 100 µM in test [2]; more than 100 µM in test [3]; more than 100 µM in test [4]; more than 100 µM in test [5]; more than 89 µM in test [6]. The TGI is more than 100 µM in test [7], more than 86.3 µM in [8], more than 93.8 µM in test [9] and more than 100 µM in test [10].

As for `O=C([O-])CC(=O)[O-].[NH-][C@@H]1CCCC[C@H]1[NH-].[Pt+4]`, the GI50 was 4.32 µM in [1]; more than 100 µM in test [2]; 85 µM in test [3]; 1.29 µM in test [4]; 5.9 µM in [5]; more than 33.9 µM in test [6]. For the same compound, the GI50 in test [7] is more than 63.9 µM; in test [8], 59.9 µM; in test [9] it was 32.1 µM; in test [10], more than 100 µM. Further, the TGI was more than 100 µM in test [1]; more than 100 µM in test [2]; more than 100 µM in test [3]; 61.4 µM in [4]; more than 80.6 µM in test [5]; more than 100 µM in test [6]. In addition, the TGI in test [7], in [8], in test [9] and in [10] was more than 100 µM throughout.

Turning to `COC(=O)C1CCc2nnc(-c3ccccc3)n21` (centres undefined), the TGI in test [1], in test [2], in test [3], in test [4], in test [5] and in [6] was more than 100 µM in each case. Moreover, the TGI in [7], in test [8], in test [9] and in test [10] was more than 100 µM throughout.

The values are drawn from PubChem BioAssay (NCI).
